Key:
Format in all cases: physicochemical
[1] = Dissolution test of ibuprofène (Sotax USP 4, HCl pH = 1); conditions: in 45 minutes, 500 mL HCl pH = 1, 37°C, 50 mL/min
Description: (§1) La dissolution de principes actifs à partir de comprimés selon l'invention, i.e. les comprimés formés à partir de fractions solubles de polymères de cyclodextrine, a été comparée à la dissolution de principes actifs à partir de comprimés formés à partir de cyclodextrines sous forme de monomères ainsi qu'à la dissolution du principe actif non compris dans une forme galénique.
(§2) La poudre contenant les cyclodextrines ou les fractions solubles de polymère de cyclodextrine et le principe actif a été obtenue par granulation humide comme détaillé dans l'exemple 4. Le ratio CD ou PolyCD / ibuprofène était de 90/10 et le ratio CD ou PolyCD / Piroxicam était de 60 / 40. Les essais de dissolution ont été réalisés dans un système Sotax® USP 4 (50 mL/min, 37°C) muni d'un détecteur UV. L'ibuprofène et le piroxicam ont été détectés à une longueur d'onde de 264 et 334 nm, respectivement.
(§3) Le milieu de dissolution est composé de 500 mL de HCl (pH = 1) dans le cas de l'ibuprofène, et de 500 mL de HCl (pH = 4) dans le cas du piroxicam. Des échantillons ont été prélevés toutes les 2 minutes pendant 1 h et analysés par un spectromètre UV-VIS (Perkin Elmer Lambda 25). Les courbes sont obtenues en pourcentage en divisant la quantité de principe actif libérée au cours du temps par la quantité de principe actif initiale.

[2] = Glass transition by DSC (Gordon-Taylor extrapolation of mannitol mixtures; quenched melt); conditions: after melt-quench at 210°C, heating 5°C/min
Protocol: Les expériences de calorimétrie ont été réalisées avec la DSC Q200 de chez TA Instruments. Les échantillons ont été placés dans des creusets en aluminium ouverts et balayés avec de l'azote gazeux pur. L'instrument a été étalonné en température et en enthalpie en utilisant l'indium comme standard. […]
La figure 12 montre les thermogrammes des mélanges poly-βCD / mannitol enregistrés au chauffage (5°C/min). Ils présentent tous un saut de chaleur spécifique (Cp) caractéristique d'une transition vitreuse. Ce saut est unique, ce qui indique que les mélanges sont dans un état physique amorphe homogène. La température de transition vitreuse Tg (prise au point d'inflexion du saut) diminue lorsque la concentration en mannitol augmente ce qui montre l'effet plastifiant du mannitol sur la poly-βCD. L'évolution du Tg du mélange ave la concentration en mannitol (X) suit une loi de Gordon Taylor dont l'extrapolation à X = 0 permet d'estimer le Tg de la poly-βCD pure. On trouve Tg # 400°C. La transition vitreuse de la poly-βCD se situe donc à très haute température et bien au-dessus de sa température de dégradation thermique. Elle ne peut donc pas être observée directement en DSC. Une étude analogue menée avec la poly-MebCD révèle un comportement identique et une transition vitreuse proche de Tg = 317°C. […]

[3] = Dissolution test of piroxicam (Sotax USP 4, HCl pH = 4); conditions: in 45 minutes; 500 mL HCl pH = 4, 37°C, 50 mL/min
Description: as §1, §2, §3

[4] = Phase-solubility diagram of ibuprofène with cyclodextrins or soluble polymer fractions; conditions: calculated from slope and So of the solubility diagram
Protocol: (§4) Les diagrammes de solubilité de plusieurs principes actifs ont été effectués en présence de cyclodextrines et de fractions solubles de polymères de cyclodextrine mentionnés à l'exemple 1.
(§5) Des solutions de concentration croissante de cyclodextrines et fractions solubles de polymères de cyclodextrine ont été préparées dans de l'eau ultrapure [0-70 g/L]. 10 mL de chacune des solutions ont été mis en présence d'un excès du principe actif (20 mg) sous agitation pendant 24 heures à température ambiante. Les solutions ont ensuite été filtrées avec une membrane en cellulose et en Nylon (0,45 µm; VWR International, USA) respectivement pour l'Ibuprofène et le Piroxicam. L'ibuprofène a été dosé par HPLC (Shimadzu LC-2010 HT Liquid Chromatography), la phase mobile de l'ibuprofène est un mélange acétonitrile/eau (60:40) avec un pH de 2,25, une colonne C18 a été utilisée. Le piroxicam a été dosé par spectrophotométrie UV-Vis à 356 nm (UV 1800 Shimadzu).
(§6) La constante de stabilité (K1:1) est utilisée pour comparer l'affinité de principes actifs pour différentes cyclodextrines ou dérivés. La solubilité totale de médicament (St) en solution aqueuse de cyclodextrine sera : [formula]
(§7) So = solubilité intrinsèque du médicament; [CD]1 = concentration totale en cyclodextrine dans le milieu aqueux
(§8) Une parcelle de St rapport [CD] t, selon l'équation (1), donnera une ligne droite avec une pente (K 1:1 So / (1 + K 1:1 So)) et une interception (Sint) égale à So. K 1:1 est calculée à partir de la pente et So : [formula]
Afin de pouvoir faire une comparaison directe entre cyclodextrine monomère et cyclodextrine polymérisée, les diagrammes de solubilité sont présentés en fonction de la concentration rapportée en gramme de monomère de cyclodextrine par litre. Tableau 3 : Solubilité de l'ibuprofène et constantes de complexation en présence des cyclodextrines ou de fractions solubles de polymères de cyclodextrine à 10 et 50 g/L en cyclodextrine. L'utilisation de cyclodextrines sous forme de monomères ne tombe pas sous l'étendue de la protection revendiquée.

[5] = Phase-solubility diagram of piroxicam with cyclodextrins or soluble polymer fractions; conditions: calculated from slope and So of the solubility diagram
Protocol: as §4, §5, §6, §7, §8

Row | Molecule | Constante de complexation K1:1 [4] [M⁻¹] | also measured
1 | CC(C)Cc1ccc(C(C)C(=O)O)cc1 (stereo not shown) [ibuprofène, acide 2-[4-isobutylphényl]propanoique] | – | dissolution du principe actif [1]: 15%
2 | CN1C(C(=O)Nc2ccccn2)=C(O)c2ccccc2S1(=O)=O [piroxicam, 1,1-dioxydede 4-hydroxy-2-méthyl-N-(2-pyridinyl)-2H-1,2-benzothiazine-3-carboxamide] | – | Tg (saut de chaleur spécifique) [2]: 65 °C; libération du piroxicam [3]: 10%
3 | hydroxypropyl-γ-cyclodextrine [HPγCD] | 11 | –
4 | méthyl-β-cyclodextrine [MeβCD] | 33 | –

The next lines start with results.

Row | Constante de complexation K1:1 [4] [M⁻¹] | Molecule | also measured
5 | 1 | OC[C@H]1O[C@@H]2O[C@H]3[C@H](O)[C@@H](O)[C@@H](O[C@H]4[C@H](O)[C@@H](O)[C@@H](O[C@H]5[C@H](O)[C@@H](O)[C@@H](O[C@H]6[C@H](O)[C@@H](O)[C@@H](O[C@H]7[C@H](O)[C@@H](O)[C@@H](O[C@H]8[C@H](O)[C@@H](O)[C@@H](O[C@H]9[C@H](O)[C@@H](O)[C@@H](O[C@H]1[C@H](O)[C@H]2O)O[C@@H]9CO)O[C@@H]8CO)O[C@@H]7CO)O[C@@H]6CO)O[C@@H]5CO)O[C@@H]4CO)O[C@@H]3CO [γCD, γ-cyclodextrine] | Constante de complexation K1:1 [5]: 890 M⁻¹
6 | 17 | hydroxypropyl-β-cyclodextrine [HPβCD1] | –
7 | 45 | hydroxypropyl-β-cyclodextrine [HPβCD2] | Constante de complexation K1:1 [5]: 185 M⁻¹

Reference: patent publication EP3349734B1, “USE OF SOLUBLE AND INSOLUBLE FRACTIONS OF A CYCLODEXTRIN POLYMER AND OF MIXTURES THEREOF AS AN EXCIPIENT IN A TABLET” (Université de Lille, priority 2015, dated 2017)
